Two compounds from article PMC12140300, “Development of Carbon‐11 Labeled Pyrimidine Derivatives as Novel Positron Emission Tomography (PET) Agents Enabling Brain Sigma‐1 Receptor Imaging” (Advanced Science, 2025) can be followed below.

Usually inhibition stands for the change of the read-out against control, counted positive when it falls. As a reminder, the Ki is a dissociation constant, usually derived from enzyme kinetics or from competition with a known ligand.

For one test, the target named is T1, M4 (Homo sapiens, UniProt P08173).
T1 construct: purchased NIMH Psychoactive Drug Screening Program (PDSP)
Put plainly: PDSP radioligand assay. Format: binding.

The target in the next test is T2, M5 (Homo sapiens, UniProt P08912).
T2 sequence (P08912 1-532): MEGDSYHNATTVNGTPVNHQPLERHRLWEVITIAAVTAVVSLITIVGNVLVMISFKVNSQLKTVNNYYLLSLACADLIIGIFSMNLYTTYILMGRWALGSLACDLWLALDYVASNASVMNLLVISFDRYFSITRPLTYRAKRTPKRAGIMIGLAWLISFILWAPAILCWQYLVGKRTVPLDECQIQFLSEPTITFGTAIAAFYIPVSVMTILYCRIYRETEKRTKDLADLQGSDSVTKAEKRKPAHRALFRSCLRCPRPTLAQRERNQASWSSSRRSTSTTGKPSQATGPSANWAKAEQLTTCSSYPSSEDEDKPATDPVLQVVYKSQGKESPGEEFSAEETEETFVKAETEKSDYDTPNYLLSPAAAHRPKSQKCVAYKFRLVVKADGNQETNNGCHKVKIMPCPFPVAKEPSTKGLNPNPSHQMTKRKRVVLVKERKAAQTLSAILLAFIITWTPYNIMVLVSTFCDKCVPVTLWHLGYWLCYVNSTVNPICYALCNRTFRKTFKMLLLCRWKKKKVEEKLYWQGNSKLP
As to the kind of experiment: PDSP radioligand assay. It is filed as binding.

For a further test, the target named is T3, PBR (Rattus norvegicus, UniProt P16257).
T3 construct: purchased NIMH Psychoactive Drug Screening Program (PDSP)
Put plainly: PDSP radioligand assay. Format: binding.

In a further test the target is T4, DOR (Homo sapiens, UniProt P41143).
T4 construct: purchased NIMH Psychoactive Drug Screening Program (PDSP)
Put plainly: PDSP radioligand assay. It is filed as binding. On the procedure: (§1) The ex vivo binding affinities of σRs of CNY‐01 and CNY‐02 were measured using a competitive radioligand binding assay.^[ [35] ^]
(§2) Details of individual binding assay conditions and protocols are available at the NIMH PDSP website: https://pdsp.unc.edu/pdspweb/.

Another test has as its target T5, Alpha2C (Homo sapiens, UniProt P18825).
T5 sequence (P18825 1-462): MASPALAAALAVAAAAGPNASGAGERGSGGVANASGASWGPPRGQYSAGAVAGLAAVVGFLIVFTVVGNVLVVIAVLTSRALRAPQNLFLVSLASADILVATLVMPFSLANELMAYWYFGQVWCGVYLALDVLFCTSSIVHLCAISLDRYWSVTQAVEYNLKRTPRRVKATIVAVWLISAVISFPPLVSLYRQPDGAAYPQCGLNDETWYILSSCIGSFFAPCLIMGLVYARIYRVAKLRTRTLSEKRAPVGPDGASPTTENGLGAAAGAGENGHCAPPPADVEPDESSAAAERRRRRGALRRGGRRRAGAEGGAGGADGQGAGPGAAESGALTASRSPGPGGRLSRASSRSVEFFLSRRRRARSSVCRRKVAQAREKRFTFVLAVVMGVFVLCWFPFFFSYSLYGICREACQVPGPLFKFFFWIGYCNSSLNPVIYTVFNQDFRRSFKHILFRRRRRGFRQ
As to the kind of experiment: PDSP radioligand assay. Format: binding. As to the method:
as §1, §2

The target of a further test is T6, Beta1 (Homo sapiens, UniProt P08588).
T6 construct: purchased NIMH Psychoactive Drug Screening Program (PDSP)
As to the kind of experiment: PDSP radioligand assay. It is filed as binding. As to the method:
as §1, §2

The target in the next test is T7, 5-HT3 (Homo sapiens, UniProt P46098).
T7 construct: purchased NIMH Psychoactive Drug Screening Program (PDSP)
As to the kind of experiment: PDSP radioligand assay. Format: binding. As to the method: as §1, §2

The target in the next test is T8, Beta2 (Homo sapiens, UniProt P07550).
T8 construct: purchased NIMH Psychoactive Drug Screening Program (PDSP)
Put plainly: PDSP radioligand assay. Format: binding. On the procedure:
as §1, §2

In the next test the target is T9, 5-HT6 (Homo sapiens, UniProt P50406).
T9 construct: purchased NIMH Psychoactive Drug Screening Program (PDSP)
As to the kind of experiment: PDSP radioligand assay. It is filed as binding. As to the method: as §1, §2

The next test addresses H2 (Homo sapiens, UniProt P25021). As to the kind of experiment: PDSP radioligand assay. Format: binding. On the procedure: as §1, §2
Another test deals with M3 (Homo sapiens, UniProt P20309). As to the kind of experiment: PDSP radioligand assay. Format: binding. As to the method:
as §1, §2

The target in a further test is D1 (Homo sapiens, UniProt P21728). Put plainly: PDSP radioligand assay. Format: binding. On the procedure: as §1, §2
Another test concerns the target T10, DAT (Homo sapiens, UniProt Q01959).
T10 construct: purchased NIMH Psychoactive Drug Screening Program (PDSP)
Put plainly: PDSP radioligand assay. It is filed as binding. On the procedure:
as §1, §2

The next test deals with T11, 5-HT1E (Homo sapiens, UniProt P28566).
T11 construct: purchased NIMH Psychoactive Drug Screening Program (PDSP)
Put plainly: PDSP radioligand assay. Format: binding. On the procedure: as §1, §2

The next test deals with T12, 5-HT2C (Homo sapiens, UniProt P28335).
T12 sequence (P28335 33-458): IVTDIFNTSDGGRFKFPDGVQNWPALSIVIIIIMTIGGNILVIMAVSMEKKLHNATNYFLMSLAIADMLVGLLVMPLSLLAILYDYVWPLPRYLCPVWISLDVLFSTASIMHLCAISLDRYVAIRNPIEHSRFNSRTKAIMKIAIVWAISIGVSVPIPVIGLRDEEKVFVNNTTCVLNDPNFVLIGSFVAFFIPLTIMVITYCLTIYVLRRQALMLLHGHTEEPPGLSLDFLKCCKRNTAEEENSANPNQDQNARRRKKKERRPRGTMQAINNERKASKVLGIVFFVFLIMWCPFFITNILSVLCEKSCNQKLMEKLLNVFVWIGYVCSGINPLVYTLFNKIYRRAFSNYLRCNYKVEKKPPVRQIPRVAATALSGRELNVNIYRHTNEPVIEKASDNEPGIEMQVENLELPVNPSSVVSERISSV
Put plainly: PDSP radioligand assay. It is filed as binding. On the procedure: as §1, §2

In a further test the target is T13, σ1R (Cavia porcellus, UniProt Q60492).
T13 construct: guinea pig brain membranes protein; from tissue; host or cells: guinea pig brain membranes
Put plainly: Ex vivo competitive radioligand binding assay for σ1R, [3H](+)-pentazocine. On the set-up: species or system Dunkin Hartley guinea pig. The conditions noted are these: guinea pig brain membranes. On the procedure:
as §1
The following specific radioligands and tissue sources were used: (a) σ 1R, [^3H] (+)‐pentazocine, Dunkin Hartley guinea pig brain membranes; (b) σ 2R, [^3H]‐DTG, Dunkin Hartley guinea pig brain membranes. Membrane preparation of brain tissue was performed following the previously reported method.4 Generally, for σ 1R binding test, guinea pig brain membranes protein (5‐10 mg), [^3H]‐(+)‐pentazocine (4 nM), test compounds solution in various concentrations (10^−5 to 10^−10 M) were incubated at 25 °C for 180 min in Tris‐HCl buffer (pH 8.0). For σ 2R binding study, the membrane suspension was incubated with [^3H]‐DTG (3 nM), different concentration test compounds, within 400 nM (+)‐SKF10047 to block σ 1R. Nonspecific binding was conducted in both binding assays under similar conditions, adding […] haloperidol. After incubation, the mixture was rapidly filtrated through Whatman GF/B glass filters, washed twice and transferred to scintillation vials, and the radioactivity bound was measured by a Beckman LS 6500 liquid scintillation counter. Inhibition constants (Ki) were calculated based on the Cheng and Prusoff equation after the IC50 values were obtained.

Chain of M3 (P20309 whole entry): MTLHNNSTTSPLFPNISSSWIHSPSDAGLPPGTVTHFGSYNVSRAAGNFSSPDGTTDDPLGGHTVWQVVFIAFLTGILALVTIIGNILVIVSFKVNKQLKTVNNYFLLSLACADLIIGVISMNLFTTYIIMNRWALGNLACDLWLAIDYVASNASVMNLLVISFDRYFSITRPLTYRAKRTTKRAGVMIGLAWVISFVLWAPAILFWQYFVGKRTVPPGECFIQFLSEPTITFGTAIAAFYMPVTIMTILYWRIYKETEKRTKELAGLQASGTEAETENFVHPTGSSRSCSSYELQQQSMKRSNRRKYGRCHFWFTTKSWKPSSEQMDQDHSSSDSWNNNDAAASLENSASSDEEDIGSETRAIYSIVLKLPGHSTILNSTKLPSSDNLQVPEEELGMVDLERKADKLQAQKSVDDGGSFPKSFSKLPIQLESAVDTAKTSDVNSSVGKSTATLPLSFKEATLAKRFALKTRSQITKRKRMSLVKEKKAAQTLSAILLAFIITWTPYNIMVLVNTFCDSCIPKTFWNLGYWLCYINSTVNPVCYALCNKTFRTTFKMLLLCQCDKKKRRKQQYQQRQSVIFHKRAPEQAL
Chain of H2 (P25021 whole entry): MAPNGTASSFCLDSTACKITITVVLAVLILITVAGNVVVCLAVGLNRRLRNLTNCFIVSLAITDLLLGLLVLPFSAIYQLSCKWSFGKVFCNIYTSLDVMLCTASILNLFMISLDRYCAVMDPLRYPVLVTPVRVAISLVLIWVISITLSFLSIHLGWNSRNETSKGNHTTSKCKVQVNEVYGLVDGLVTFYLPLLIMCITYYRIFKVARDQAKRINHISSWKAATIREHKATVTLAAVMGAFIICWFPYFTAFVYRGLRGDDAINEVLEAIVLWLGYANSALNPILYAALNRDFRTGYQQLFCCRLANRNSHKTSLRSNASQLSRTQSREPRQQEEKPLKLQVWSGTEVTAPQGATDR
Chain of D1 (P21728 whole entry): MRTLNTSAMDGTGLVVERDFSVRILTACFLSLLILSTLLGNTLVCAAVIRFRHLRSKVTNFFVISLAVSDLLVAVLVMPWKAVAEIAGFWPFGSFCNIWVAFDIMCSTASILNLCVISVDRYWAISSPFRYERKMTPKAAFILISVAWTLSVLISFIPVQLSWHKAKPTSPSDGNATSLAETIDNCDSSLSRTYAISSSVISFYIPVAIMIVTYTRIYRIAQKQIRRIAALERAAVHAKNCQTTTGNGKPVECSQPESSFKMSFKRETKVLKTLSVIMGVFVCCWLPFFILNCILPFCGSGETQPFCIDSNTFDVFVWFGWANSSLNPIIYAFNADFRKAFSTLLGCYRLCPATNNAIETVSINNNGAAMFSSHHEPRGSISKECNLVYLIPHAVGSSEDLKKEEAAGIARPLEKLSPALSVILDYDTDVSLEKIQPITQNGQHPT
T7 sequence (P46098 24-478): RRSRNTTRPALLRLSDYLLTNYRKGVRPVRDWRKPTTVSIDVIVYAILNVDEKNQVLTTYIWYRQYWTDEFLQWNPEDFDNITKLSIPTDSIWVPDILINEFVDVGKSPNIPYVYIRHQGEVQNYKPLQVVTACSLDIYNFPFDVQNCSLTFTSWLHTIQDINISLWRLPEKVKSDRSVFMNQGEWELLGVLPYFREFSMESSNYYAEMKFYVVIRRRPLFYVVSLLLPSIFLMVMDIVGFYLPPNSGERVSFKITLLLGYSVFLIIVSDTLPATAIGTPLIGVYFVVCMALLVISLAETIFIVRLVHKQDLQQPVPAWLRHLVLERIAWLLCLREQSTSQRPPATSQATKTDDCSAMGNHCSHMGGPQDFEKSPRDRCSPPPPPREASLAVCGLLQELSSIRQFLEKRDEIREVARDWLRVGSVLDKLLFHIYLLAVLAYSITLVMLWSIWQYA
T13 sequence (Q60492 whole entry): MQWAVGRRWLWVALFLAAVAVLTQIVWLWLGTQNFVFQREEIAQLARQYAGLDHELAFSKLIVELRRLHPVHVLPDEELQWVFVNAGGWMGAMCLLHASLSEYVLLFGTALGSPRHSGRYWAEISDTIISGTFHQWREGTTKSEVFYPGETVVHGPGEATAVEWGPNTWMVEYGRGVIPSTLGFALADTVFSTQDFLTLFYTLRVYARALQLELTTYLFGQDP
T11 sequence (P28566 whole entry): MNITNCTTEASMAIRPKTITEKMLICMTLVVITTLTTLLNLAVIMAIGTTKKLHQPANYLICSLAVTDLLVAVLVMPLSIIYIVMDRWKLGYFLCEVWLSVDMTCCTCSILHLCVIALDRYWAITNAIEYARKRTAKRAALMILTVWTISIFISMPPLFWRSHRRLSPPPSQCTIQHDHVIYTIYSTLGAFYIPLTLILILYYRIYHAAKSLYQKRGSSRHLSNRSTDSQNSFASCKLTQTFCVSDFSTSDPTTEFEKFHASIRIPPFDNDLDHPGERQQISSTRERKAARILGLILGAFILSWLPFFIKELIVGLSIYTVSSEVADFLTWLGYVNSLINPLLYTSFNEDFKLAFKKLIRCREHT
T9 sequence (P50406 whole entry): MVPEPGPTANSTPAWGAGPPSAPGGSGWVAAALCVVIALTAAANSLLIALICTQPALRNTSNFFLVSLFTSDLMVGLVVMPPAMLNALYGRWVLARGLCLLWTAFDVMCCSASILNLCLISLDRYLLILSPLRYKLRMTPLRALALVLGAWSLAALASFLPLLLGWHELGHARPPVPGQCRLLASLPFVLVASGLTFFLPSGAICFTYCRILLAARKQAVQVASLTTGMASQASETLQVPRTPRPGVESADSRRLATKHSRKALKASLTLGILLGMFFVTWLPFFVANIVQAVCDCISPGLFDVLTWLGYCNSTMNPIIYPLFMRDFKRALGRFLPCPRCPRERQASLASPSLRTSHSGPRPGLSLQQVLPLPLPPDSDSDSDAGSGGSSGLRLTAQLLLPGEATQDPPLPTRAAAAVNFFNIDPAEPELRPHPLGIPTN
T6 sequence (P08588 whole entry): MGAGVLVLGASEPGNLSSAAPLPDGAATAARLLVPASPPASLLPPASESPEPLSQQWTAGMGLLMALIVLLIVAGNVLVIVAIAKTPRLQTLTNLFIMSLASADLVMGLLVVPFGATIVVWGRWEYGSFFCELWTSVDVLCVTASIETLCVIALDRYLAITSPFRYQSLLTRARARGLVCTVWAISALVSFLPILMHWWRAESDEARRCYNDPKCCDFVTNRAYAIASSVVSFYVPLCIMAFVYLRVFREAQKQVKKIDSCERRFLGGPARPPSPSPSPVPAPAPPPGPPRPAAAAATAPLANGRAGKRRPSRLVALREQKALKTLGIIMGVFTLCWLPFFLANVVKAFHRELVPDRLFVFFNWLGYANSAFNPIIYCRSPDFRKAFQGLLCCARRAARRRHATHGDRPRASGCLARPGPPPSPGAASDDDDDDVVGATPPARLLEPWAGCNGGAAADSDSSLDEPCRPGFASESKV
T4 sequence (P41143 whole entry): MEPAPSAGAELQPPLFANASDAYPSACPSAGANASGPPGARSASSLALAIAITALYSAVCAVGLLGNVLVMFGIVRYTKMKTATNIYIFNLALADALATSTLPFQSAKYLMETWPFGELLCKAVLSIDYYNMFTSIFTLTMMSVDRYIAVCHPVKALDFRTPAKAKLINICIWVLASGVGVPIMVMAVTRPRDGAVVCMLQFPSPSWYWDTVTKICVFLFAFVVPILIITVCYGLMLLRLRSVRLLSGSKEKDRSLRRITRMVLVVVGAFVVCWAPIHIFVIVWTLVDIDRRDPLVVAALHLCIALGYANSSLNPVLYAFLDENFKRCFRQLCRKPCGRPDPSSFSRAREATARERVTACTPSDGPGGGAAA
T8 sequence (P07550 whole entry): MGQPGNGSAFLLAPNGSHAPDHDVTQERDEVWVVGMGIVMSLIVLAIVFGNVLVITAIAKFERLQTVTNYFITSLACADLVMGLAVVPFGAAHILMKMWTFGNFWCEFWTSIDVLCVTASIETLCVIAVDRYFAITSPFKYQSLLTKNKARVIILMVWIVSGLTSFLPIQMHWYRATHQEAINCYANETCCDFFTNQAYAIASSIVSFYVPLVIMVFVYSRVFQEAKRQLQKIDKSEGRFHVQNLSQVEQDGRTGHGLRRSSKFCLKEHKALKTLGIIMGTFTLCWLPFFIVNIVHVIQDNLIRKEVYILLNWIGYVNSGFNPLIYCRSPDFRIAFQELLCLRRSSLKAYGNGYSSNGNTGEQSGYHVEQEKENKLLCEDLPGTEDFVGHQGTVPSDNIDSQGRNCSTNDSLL
T1 sequence (P08173 whole entry): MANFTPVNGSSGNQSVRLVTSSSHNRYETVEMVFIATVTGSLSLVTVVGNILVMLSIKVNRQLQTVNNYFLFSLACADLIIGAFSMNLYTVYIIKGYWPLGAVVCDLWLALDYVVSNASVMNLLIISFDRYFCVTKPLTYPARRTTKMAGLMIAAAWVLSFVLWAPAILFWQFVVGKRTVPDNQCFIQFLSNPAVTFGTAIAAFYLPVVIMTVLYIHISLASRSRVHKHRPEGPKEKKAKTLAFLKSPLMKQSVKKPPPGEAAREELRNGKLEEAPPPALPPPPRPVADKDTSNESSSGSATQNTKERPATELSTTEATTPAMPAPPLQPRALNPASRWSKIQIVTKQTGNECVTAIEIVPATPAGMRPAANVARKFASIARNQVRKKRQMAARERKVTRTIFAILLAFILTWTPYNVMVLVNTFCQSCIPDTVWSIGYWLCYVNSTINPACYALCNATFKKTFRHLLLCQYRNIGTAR

Take `COc1ccc(-c2nc(C)c(Cl)c(OCCCN3CCCCC3)n2)cc1` [CNY-01, 5‐chloro‐2‐(4‐methoxyphenyl)‐4‐methyl‐6‐(3‐(piperidin‐1‐yl)propoxy)pyrimidine]: the inhibition at 10 µM on M4 turned out to be 20.6%; on M5, 59.1%; on PBR, 25.8%; on DOR it was 3.77%; on Alpha2C, 85.1%; at Beta1 it was 7.15%. In addition, the inhibition at 10 µM stood at 7.61% on 5-HT3; 4.03% on Beta2; 30.1% at 5-HT6; 89.7% on H2; 16.3% on M3; 19% at D1. The figures for the inhibition at 10 µM at DAT, at 5-HT1E and on 5-HT2C were 20.9%, 31.2% and -5.06%, respectively. The Ki is more than 10000 nM at M5, 430 nM at Alpha2C, 709 nM on H2 and 3.88 nM on σ1R.
For the compound `Cc1nc(-c2ccc(Cl)cc2)nc(OCCCN2CCN(C)CC2)c1Cl` [CNY-02, 5‐chloro‐2‐(4‐chlorophenyl)‐4‐methyl‐6‐(3‐(4‐methylpiperazin‐1‐yl)propoxy)pyrimidine], the inhibition at 10 µM at M4 came to 31.1%; on M5 it was 83.3%; on PBR, 26%; on DOR it was 1.3%; at Alpha2C, 52.4%; at Beta1, 3.55%. Also, the inhibition at 10 µM on 5-HT3 is -1.23%; on Beta2 it was 11.7%; at 5-HT6, 28.1%; at H2 it was 84.9%; at M3, 54%; at D1 it was 52.1%. The inhibition at 10 µM on DAT is 33.8%; on 5-HT1E, 27.8%; at 5-HT2C it was 89.4%. Also, the Ki at M5 worked out at 2500 nM; at Alpha2C, 3770 nM; on H2, 1240 nM; at M3, 727 nM; on D1, 2340 nM; on 5-HT2C, 268 nM. Further, affinity at σ1R was put at a Ki of 2.05 nM.
